Laboratory results published in ChEMBL document CHEMBL3045537, “Synthesis of 2-(aryl)-5-(arylidene)-4-thiazolidinone derivatives with potential analgesic and anti-inflammatory activity” (2012).

Experiments:
Type in all cases: functional
[1] = test system: Mus musculus; assay: Analgesic activity in Mus musculus (mouse) assessed as protection against acetic acid-induced writhing at 10 mg/kg, po administered 30 min prior challenge measured for 20 min
[2] = test system: Rattus norvegicus; assay: Anti-inflammatory activity inRattus norvegicus albino (rat) assessed as reduction of carrageenan-induced paw edema at 10 mg/kg, po administered 1 hr prior challenge measured after 4 hr post challenge by plethismometer; set-up: scale not given: the % may be the effect or the level left
[3] = test system: Rattus norvegicus; assay: Anti-inflammatory activity inRattus norvegicus albino (rat) assessed as reduction of carrageenan-induced paw edema at 10 mg/kg, po administered 1 hr prior challenge measured after 2 hr post challenge by plethismometer; set-up: scale not given: the % may be the effect or the level left

For O=C(NN1C(=O)/C(=C/c2ccccc2)SC1c1ccc(Cl)cc1)c1ccc(-c2ccccc2)cc1 (configuration not stated), the Activity [1] was 20.43%, the Activity [2] was 55.11% and the Activity [3] was 48.92%.

O=C(NN1C(=O)/C(=C/c2cccc([N+](=O)[O-])c2)SC1c1ccc(Cl)cc1)c1ccc(-c2ccccc2)cc1 (configuration not stated) showed an Activity [1] of 27.5%, an Activity [2] of 56.35% and an Activity [3] of 45.21%.

O=C(NN1C(=O)/C(=C/c2ccc(Cl)cc2)SC1c1ccc(Cl)cc1)c1ccc(-c2ccccc2)cc1 (configuration not stated) was tested, and the Activity [1] was 22.93%, the Activity [2] was 55.34% and the Activity [3] was 46.14%.

With O=C(NN1C(=O)/C(=C/c2cccc(Br)c2)SC1c1ccc(Cl)cc1)c1ccc(-c2ccccc2)cc1 (configuration not stated) the Activity [1] was 17.93%, the Activity [2] was 54.8% and the Activity [3] was 44.56%.

With COc1ccc(/C=C2\SC(c3ccc(Cl)cc3)N(NC(=O)c3ccc(-c4ccccc4)cc3)C2=O)cc1 (configuration not stated) the Activity [1] was 29.6%, the Activity [2] was 53.87% and the Activity [3] was 45.83%.

In the case of O=C(NN1C(=O)/C(=C/c2ccccc2)SC1c1cccc([N+](=O)[O-])c1)c1ccc(-c2ccccc2)cc1 (configuration not stated), the Activity [1] is reported as 40.85%, the Activity [2] is reported as 47.99% and the Activity [3] is reported as 38.09%.

For O=C(NN1C(=O)/C(=C/c2cccc([N+](=O)[O-])c2)SC1c1cccc([N+](=O)[O-])c1)c1ccc(-c2ccccc2)cc1 (configuration not stated), the Activity [1] was 43.35%, the Activity [2] was 51.37% and the Activity [3] was 39.63%.

Compound O=C(NN1C(=O)/C(=C/c2ccc(Cl)cc2)SC1c1cccc([N+](=O)[O-])c1)c1ccc(-c2ccccc2)cc1 (configuration not stated) has an Activity [1] of 46.25%, an Activity [2] of 49.23% and an Activity [3] of 39.94%.

With O=C(NN1C(=O)/C(=C/c2cccc(Br)c2)SC1c1cccc([N+](=O)[O-])c1)c1ccc(-c2ccccc2)cc1 (configuration not stated) the Activity [1] was 37.5%, the Activity [2] was 50.78% and the Activity [3] was 38.7%.

With COc1ccc(/C=C2\SC(c3cccc([N+](=O)[O-])c3)N(NC(=O)c3ccc(-c4ccccc4)cc3)C2=O)cc1 (configuration not stated) the Activity [1] was 37.93%, the Activity [2] was 48.92% and the Activity [3] was 37.78%.

With COc1ccc(C2S/C(=C\c3ccccc3)C(=O)N2NC(=O)c2ccc(-c3ccccc3)cc2)cc1 (configuration not stated) the Activity [1] was 38.35%, the Activity [2] was 68.74% and the Activity [3] was 45.83%.

COc1ccc(C2S/C(=C\c3cccc([N+](=O)[O-])c3)C(=O)N2NC(=O)c2ccc(-c3ccccc3)cc2)cc1 (configuration not stated) was tested, and the Activity [1] was 36.25%, the Activity [2] was 71.21% and the Activity [3] was 47.68%.

COc1ccc(C2S/C(=C\c3ccc(Cl)cc3)C(=O)N2NC(=O)c2ccc(-c3ccccc3)cc2)cc1 (configuration not stated) gave an Activity [1] of 32.1%, an Activity [2] of 71.83% and an Activity [3] of 57.9%.

In the case of COc1ccc(C2S/C(=C\c3cccc(Br)c3)C(=O)N2NC(=O)c2ccc(-c3ccccc3)cc2)cc1 (configuration not stated), the Activity [1] is reported as 33.35%, the Activity [2] is reported as 69.05% and the Activity [3] is reported as 46.75%.

Compound COc1ccc(/C=C2\SC(c3ccc(OC)cc3)N(NC(=O)c3ccc(-c4ccccc4)cc3)C2=O)cc1 (configuration not stated) has an Activity [1] of 40.43%, an Activity [2] of 70.28% and an Activity [3] of 49.54%.

O=C(NN1C(=O)/C(=C/c2ccc(Cl)cc2)SC1c1ccc(F)cc1)c1ccc(-c2ccccc2)cc1 (configuration not stated) showed an Activity [1] of 46.25%, an Activity [2] of 52.92% and an Activity [3] of 43.64%.

Compound O=C(NN1C(=O)/C(=C/c2cccc(Br)c2)SC1c1ccc(F)cc1)c1ccc(-c2ccccc2)cc1 (configuration not stated) has an Activity [1] of 37.5%, an Activity [2] of 52.08% and an Activity [3] of 41.76%.

With COc1ccc(/C=C2\SC(c3ccc(F)cc3)N(NC(=O)c3ccc(-c4ccccc4)cc3)C2=O)cc1 (configuration not stated) the Activity [1] was 37.93%, the Activity [2] was 53.62% and the Activity [3] was 45.82%.

With O=C([O-])Cc1ccccc1Nc1c(Cl)cccc1Cl.[Na+] [DICLOFENAC SODIUM] the Activity [1] was 68.5%, the Activity [2] was 79.26% and the Activity [3] was 54.18%.
